# Key:
# human CB2R = target: T1, human CB2R (Homo sapiens, UniProt P34972); test: PathHunter β-arrestin recruitment assay in CHO cells; format: cell-based
# T1 construct: bgal (beta-galactosidase fragment of the PathHunter system); host or cells: CHO-K1
# Method: Assays were carried out using the PathHunter hCB2_bgal CHOK1 β-arrestin recruitment assay kit (DiscoveRx, Fremont, CA, United States) as previously described ([Soethoudt et al., 2017]). A total of 5,000 cells per well were seeded in 384-well plates (PerkinElmer, Waltham, MA, United States) containing 20 μL cell culture medium and incubated for 16–18 h at 37°C in 5% CO2. Cells were stimulated with RG7774 and incubated for 1.5 h at 37°C in 5% CO2. As the RG7774 stock solution was 100% DMSO, the final concentration of DMSO per assay point was diluted to 0.1%. PathHunter Detection mixture was used to determine β-galactosidase enzyme activity according to the manufacturer’s protocol. Detection mixture (12 µL per well) was added, and the plate was incubated for 1 h in the dark at RT. Chemiluminescence (indicated as relative light units) was measured on an EnVision multilabel plate reader (PerkinElmer, Waltham, MA, United States).
# endogenous CB2R = target: T2, endogenous CB2R (Homo sapiens, UniProt P34972); test: pERK assay in Jurkat cells; format: cell-based
# T2 construct: endogenous CB2R in human Jurkat cells; endogenous in cells; host or cells: Jurkat cells
# T2 sequence (P34972 whole entry): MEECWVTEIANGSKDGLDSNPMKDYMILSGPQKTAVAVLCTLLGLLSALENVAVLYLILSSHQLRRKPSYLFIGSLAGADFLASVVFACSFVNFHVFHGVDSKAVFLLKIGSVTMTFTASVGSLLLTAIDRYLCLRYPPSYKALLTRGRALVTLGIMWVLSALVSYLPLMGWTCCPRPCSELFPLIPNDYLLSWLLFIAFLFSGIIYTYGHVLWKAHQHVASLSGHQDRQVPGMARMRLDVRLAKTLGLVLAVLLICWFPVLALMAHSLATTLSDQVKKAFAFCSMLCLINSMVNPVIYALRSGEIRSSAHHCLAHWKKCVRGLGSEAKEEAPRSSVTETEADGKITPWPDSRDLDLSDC
# Method: ERK phosphorylation in response to RG7774 treatment was measured in Jurkat cells as described in ([Saroz et al., 2019]) using the AlphaLISA SureFire Ultra p-Erk1/2 assay (PerkinElmer, Waltham, MA, United States). Cells (200,000 per 96 well plate) were seeded in 40 μL RPMI 1640 assay medium (Fisher Scientific, Schwerte, Germany) containing 10% FCS, 2 mM L-Glu, and 25 mM HEPES) and incubated for 1 h at 37°C in 5% CO2. Cells were treated with increasing concentrations of RG7774 in 40 μL assay medium. Plates were shaken for 30 s (sec) at 450 rpm, incubated for 2 min at 37°C in 5% CO2, and placed on ice. Ice-cold lysis buffer (20 μL 5x) (supplied with the assay kit) was added, plates were shaken (500 rpm) for 10 min at 4°C, and 10 μL of lysate was transferred to a 384-well Optiplate (PerkinElmer, Waltham, MA, United States). The AlphaLISA assay was performed according to the manufacturer’s protocol. Plates were read using Tecan Infinite M1000Pro (excitation 680 nm for 100 ms, integration time 300 ms, and emission 615 nm).
# Human 12-LOX = target: T3, Human 12-LOX (Homo sapiens, UniProt P18054); test: Human 12-LOX assay; format: biochemical; settings: RG7774 10 µM; read-out: Mean ± SEM % inhibition of control, Human 12-LOX
# T3 construct: human platelet-derived 12-LOX; from tissue; host or cells: human platelets
# T3 sequence (P18054 whole entry): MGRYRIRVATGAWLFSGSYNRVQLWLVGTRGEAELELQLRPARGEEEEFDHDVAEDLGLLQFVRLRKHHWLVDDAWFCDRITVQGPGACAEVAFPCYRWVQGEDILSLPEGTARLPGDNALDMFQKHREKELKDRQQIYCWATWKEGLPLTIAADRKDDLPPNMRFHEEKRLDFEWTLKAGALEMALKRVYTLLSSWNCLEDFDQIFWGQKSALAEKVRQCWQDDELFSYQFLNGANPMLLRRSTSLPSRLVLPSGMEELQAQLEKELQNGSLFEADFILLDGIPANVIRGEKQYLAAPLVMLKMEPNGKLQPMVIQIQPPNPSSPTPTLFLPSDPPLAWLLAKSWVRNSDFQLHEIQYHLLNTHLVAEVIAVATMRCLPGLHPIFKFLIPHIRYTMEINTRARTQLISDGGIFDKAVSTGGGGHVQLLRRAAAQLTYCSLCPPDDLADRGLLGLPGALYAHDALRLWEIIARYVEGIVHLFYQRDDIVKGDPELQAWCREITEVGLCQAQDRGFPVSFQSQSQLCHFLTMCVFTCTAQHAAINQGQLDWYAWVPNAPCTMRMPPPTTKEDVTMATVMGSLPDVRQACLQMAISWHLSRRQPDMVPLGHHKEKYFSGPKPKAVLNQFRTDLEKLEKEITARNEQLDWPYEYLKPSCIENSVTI
# Method: The inhibitory effects of different concentrations of RG7774 (0.1-500 µM) on the activities of human recombinant 5-LOX (Cayman Chemical Company #60402), 15-LOX (Cayman Chemical Company #10011263), and human platelet-derived 12-LOX were determined using the Biovision Lipoxygenase Activity Assay Kit (#BVN-K978-100). This kit converts the LOX substrate to an intermediate that reacted with the probe, generating a fluorescent product. The effect of RG7774 (preincubated for 15 min) at 10 µM on LOXs (5-LOX: 0.5 or 1.2 µg; 12-LOX: 20 µg; 15-LOX: 0.23 or 0.3 µg) was ascertained by adding the compounds directly to the incubation medium and the fluorescent signal, recorded at excitation/emission 500/536 nm at 30 sec intervals for 30-40 min, was directly proportional to LOX activity. […] The percentage of human 5-, 12-, and 15-LOX activity (control) was estimated from the amount of oxidized probe in the reaction using a standard curve.
# [1] = Thermodynamic solubility (THESA/FaSSIF/FeSSIF); format: physicochemical
# Description: S2.2 Thermodynamic solubility assay (THESA)
# [2] = GSH adduct formation in human liver microsomes; format: in vitro ADME
# Method: GSH adduct formation assays were conducted as previously described. Briefly, RG7774 was incubated with human liver microsomes to form reactive metabolites, and glutathione was added as a nucleophile to convert the reactive metabolites into stable conjugates that could be analyzed by MS.
# human CB1R = human CB1R (Homo sapiens, UniProt P21554); test: Competition binding, [^3H]-CP55940, CHO cell membranes; design: expressed in transfected cells; host or cells: CHO cells (membranes); settings: CHO cells
# Chain of human CB1R (P21554 whole entry): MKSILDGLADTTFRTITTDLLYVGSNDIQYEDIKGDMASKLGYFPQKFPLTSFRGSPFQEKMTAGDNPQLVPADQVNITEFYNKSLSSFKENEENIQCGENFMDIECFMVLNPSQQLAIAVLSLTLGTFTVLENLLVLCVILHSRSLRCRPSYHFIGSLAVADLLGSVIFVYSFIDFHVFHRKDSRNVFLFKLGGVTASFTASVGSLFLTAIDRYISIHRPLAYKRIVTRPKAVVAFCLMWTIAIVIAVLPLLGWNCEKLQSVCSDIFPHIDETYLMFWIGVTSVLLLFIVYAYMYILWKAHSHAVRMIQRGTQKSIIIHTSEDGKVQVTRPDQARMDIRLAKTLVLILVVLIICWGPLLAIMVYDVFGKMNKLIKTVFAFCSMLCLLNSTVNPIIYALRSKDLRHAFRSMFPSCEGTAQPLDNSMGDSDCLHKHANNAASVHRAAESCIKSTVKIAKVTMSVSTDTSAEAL
# Method: Competition and saturation binding assays were performed using the radiolabeled CB1R/CB2R agonist [^3H]-CP55940 (PerkinElmer, Waltham, MA, United States) in recombinant cell systems, and the newly developed CB2R-selective agonist [^3H]-RO6753361 ([Chicca et al., 2024]) in cells expressing endogenous CB1R/CB2R. Competition assays were conducted by incubating 5, 40, or 40 µg of membrane protein from CHO cells, Jurkat cells or spleen cells, respectively, with 1.5 nM [^3H]-CP55940 or 1.5 nM [^3H]-RO6753361 in the presence or absence of increasing concentrations of ligand (RG7774 or control) for 2 h at 30°C in a final volume of 0.2 mL of assay buffer (50 mmol/L Tris-HCl, 5 mmol/L MgCl2, 2.5 mmol/L EDTA, and 0.5% fatty acid-free BSA [pH 7.4] and 1% DMSO), with gentle shaking. Saturation binding assays were conducted by incubating 1–3 μg, 40 μg, or 30–40 μg of membrane protein from CHO cells, Jurkat cells, or spleen tissue, respectively, with 12 concentrations in the range of 80–0.039 nM [^3H]-CP55940 or [^3H]-RO6753361 for 2 h at 30°C in a final volume of 0.2 mL/well of assay buffer without DMSO. […] IC50 values and Hill slopes were determined with a 4-parameter logistic model using ActivityBase (ID Business Solution, Guilford, United Kingdom) and pKi values were determined using the Cheng-Prusoff equation ([Cheng and Prusoff, 1973]).
# T1 sequence (P34972 whole entry, the tested form may be a part): as the sequence (P34972 whole entry) above
smiles,measurement,setting,value
"Cn1nnnc1Cn1nnc2c(N3CC[C@H](O)C3)nc(C(C)(C)C)nc21 [RG7774, (S)-1-(5-tert-butyl-3-[(1-methyl-1H-tetrazol-5-yl)methyl]-3H-[1,2,3]triazolo[4,5-d]pyrimidin-7-yl)pyrrolidin-3-ol]",EC50,human CB2R,99.7 ± 5.72 nM
same,EC50,endogenous CB2R,38.5 ± 15 nM
same,inhibition at 10 µM,Human 12-LOX,1.5 ± 1.8%
same,FaSSIF,[1]; fasted simulated gastrointestinal fluid,1177 µg/mL
same,FeSSIF,[1]; fed simulated gastrointestinal fluid,2872 µg/mL
same,THESA,[1]; thermodynamic solubility,901 µg/mL
same,GSH (human liver microsomes) adducts,[2],none detected
same,binding to recombinant human CB1R,human CB1R,no binding
